Molecules are shown by their SMILES. Where “and” joins values, the source holds several entries; their conditions need not be identical. Equal entries are not always repeated.

One may read the IC50 as the concentration that gives 50% inhibition.

Test [1] concerns the target T1, ALKBH5 (Homo sapiens, UniProt Q6P6C2).
T1 construct: pNIC28-Bsa4 ALKBH5 (encompassing residues 66-292); made in house; host or cells: E. coli BL21 (DE3) Rosetta T1R
Briefly: MALDI-based inhibition assay for ALKBH5, m6A-ssDNA substrate. It is filed as biochemical. The conditions noted are these: read-out: IC50 (ALKBH5). As to the method: MALDI-based inhibition assays for FTO and ALKBH5
The assay was modified from previously reported method.[5] An 8-mer m6A-ssDNA substrate with the sequence 5’-TCA(m6A)CAGC-3’ (Yale University, W.M. Keck Foundation Biotechnology Resource Laboratory) was used in this inhibition assay. The assay was performed in triplicate for each inhibitor, in a final reaction volume of 25 µL. Reaction […]
µM), L-ascorbate (2 mM), m6A-ssDNA substrate (100 µM), in 50 mM HEPES buffer, pH 7.5, and inhibitor at various concentrations (final DMSO concentration not more than 1% v/v of assay mix). The reaction was incubated at room temperature for 30 min, before 1:1 quenching with 20% v/v formic acid. 1 uL of the diluted assay mixture was then mixed with 1 uL of 3-hydroxpicolinic acid (3-HPA, the MALDI-TOF-MS matrix, Sigma-Aldrich) and spotted onto the MALDI-TOF-MS plate before analysis. The 3-HPA matrix was prepared by mixing 9 parts of 50 mg/mL 3-hydroxpicolinic acid in 50% MeCN/Milli-Q H2O with 1 part […]
The percentage inhibition was estimated based on the relative intensities of the methylated substrate and the demethylated product observed in the mass spectra. For IC50 determination, eight different concentrations of […]
the variation in percentage demethylation at different inhibitor concentrations, using nonlinear regression, with normalized dose-response fit on GraphPad Prism 6.0™. […]

Test [2] has as its target T1, ALKBH5. Briefly: Differential scanning fluorimetry (DSF)-based binding assay, ALKBH5. The conditions noted are these: 100 μM compound, 2 μM protein, 50 μM MnCl2, read-out: Tm shift (ALKBH5). As to the method: (§1) Superdex-200 column (GE Healthcare) pre-equilibrated with 20 mM HEPES, pH 7.5, 300 mM NaCl, 10% (v/v) glycerol, 0.5 mM TCEP. […]
(§2) Differential scanning fluorimetry (DSF)-based binding assay
DSF-based binding assay was performed using a MiniOpticon™ Real-Time PCR Detection System (Bio-Rad), monitoring protein unfolding using SYPRO orange (Invitrogen) according […]
to the reported method.[16] […]
and emission respectively. Reaction mixes contained 2 μM protein, 50 μM MnCl2, 100 μM […]
Reagents were prepared in 50mM
HEPES buffer, pH 7.5 except metals, which were dissolved as 100 mM stocks in 20 mM HCl, then further diluted in MilliQ water. Compounds tested were prepared in 100% DMSO and added such that the final concentration of DMSO was not more than 1% v/v of assay […]
increased linearly by 1°C min -1. The software provided was used to perform global minimum subtraction. The inflection point, representing Tm, was calculated by fitting the Boltzmann equation to the sigmoidal curves obtained; data were processed using GraphPad Prism 6.0™.
The Tm shift caused by the addition of small molecules/ fragments was determined by subtraction of the “reference” Tm (protein incubated with metal and 1% v/v DMSO) from the Tm obtained in the presence of the compound. […]
Background: Differential scanning fluorimetry follows unfolding on heating by fluorescence.

Another test deals with T2, ALKBH3 (Homo sapiens, UniProt Q96Q83).
T2 construct: Human ALKBH3 (encompassing residues 1- 286); purchased ProSpec-Tany Technogene Ltd, Israel
T2 sequence (Q96Q83 1-286): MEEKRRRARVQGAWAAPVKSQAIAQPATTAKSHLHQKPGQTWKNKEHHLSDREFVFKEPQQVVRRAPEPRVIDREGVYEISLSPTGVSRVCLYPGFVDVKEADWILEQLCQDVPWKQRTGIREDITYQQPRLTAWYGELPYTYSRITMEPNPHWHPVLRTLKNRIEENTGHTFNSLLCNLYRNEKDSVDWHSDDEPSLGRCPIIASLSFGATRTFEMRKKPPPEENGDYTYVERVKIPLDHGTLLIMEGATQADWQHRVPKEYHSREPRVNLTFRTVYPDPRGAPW
Briefly: Differential scanning fluorimetry (DSF)-based binding assay, ALKBH3. Conditions: DSF, 100 μM compound, 2 μM protein, 50 μM MnCl2; read-out: Tm shift (ALKBH3). As to the method: as §1, §2
DSF-based binding assay was performed using a MiniOpticon™ Real-Time PCR Detection System (Bio-Rad), monitoring protein unfolding using SYPRO orange (Invitrogen) according to the reported method.[16] FAM (492 nm) and ROX (610 nm) filters were used for excitation and emission respectively. Reaction mixes contained 2 μM protein, 50 μM MnCl2, 100 μM compounds, 5x SYPRO orange in a final volume of 50 μl. Reagents were prepared in 50mM HEPES buffer, pH 7.5 except metals, which were dissolved as 100 mM stocks in 20 mM HCl, then further diluted in MilliQ water. Compounds tested were prepared in 100% DMSO and added such that the final concentration of DMSO was not more than 1% v/v of assay […]
mix. Fluorescence readings were taken every 1°C in the range 25-95°C, with the temperature increased linearly by 1°C min -1. The software provided was used to perform global minimum subtraction. The inflection point, representing Tm, was calculated by fitting the Boltzmann equation to the sigmoidal curves obtained; data were processed using GraphPad Prism 6.0™.
The Tm shift caused by the addition of small molecules/ fragments was determined by subtraction of the “reference” Tm (protein incubated with metal and 1% v/v DMSO) from the Tm obtained in the presence of the compound. The assay was performed in triplicate for each inhibitor, with standard deviations typically < 1°C. […]

T1 sequence (Q6P6C2 66-292): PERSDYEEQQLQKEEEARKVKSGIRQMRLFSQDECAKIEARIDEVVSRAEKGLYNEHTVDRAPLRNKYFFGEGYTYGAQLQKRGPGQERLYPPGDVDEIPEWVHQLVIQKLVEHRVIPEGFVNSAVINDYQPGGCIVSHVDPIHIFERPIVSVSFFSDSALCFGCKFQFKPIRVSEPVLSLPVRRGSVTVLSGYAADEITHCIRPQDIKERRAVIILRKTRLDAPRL

In the case of `O=C(O)/C=C/C(=O)NNC(=O)c1cnccc1Cc1ccccc1` [Compound 12], at ALKBH5 [1], the IC50 is 108 µM. In addition, the ΔTm at 100 µM on ALKBH5 [2] was found to be 2.7 °C; on ALKBH3, 3.2 °C.
Turning to `O=C(O)/C=C/C(=O)NNC(=O)c1ccccn1` [Compound 23], the IC50 at ALKBH5 [1] came out at 157 µM. Further, the ΔTm at 100 µM turned out to be 2.1 °C on ALKBH5 [2] and 2 °C on ALKBH3.
As for `O=C(O)/C=C/C(=O)NNC(=O)c1cccnc1` [Compound 21], the IC50 at ALKBH5 [1] is 168 µM and > 100 µM. Moreover, the ΔTm at 100 µM at ALKBH5 [2] is 2.1 °C; at ALKBH3, 2.5 °C.
Regarding `O=C(O)C=CC(=O)NNC(=O)c1cc(Cc2ccccc2)ccn1` [Compound 22], the IC50 on ALKBH5 [1] was 105 µM. Also, the ΔTm at 100 µM was found to be 2.8 °C at ALKBH5 [2] and 3.5 °C on ALKBH3.

The values above are taken from publication PMC5424463, “A strategy based on nucleotide specificity leads to a subfamily-selective and cell-active inhibitor of N ^6-methyladenosine demethylase FTO” (Chemical Science, 2014).
